Measured values as given in ChEMBL document CHEMBL4651402, “Screening of ~5500 FDA-approved drugs and clinical candidates for anti-SARS-CoV-2 activity” (2021).

Tested on: SARS-CoV-2
Assay: microbe, parasite or virus in culture
Conditions: Severe acute respiratory syndrome coronavirus 2, Vero C1008, 48 h

SMILES	IC50 [µM]	IC50 (read-out: pIC50 (converted)) [µM]
CN1CCC/C1=N\C(=N\c1ccccc1)N1CCOCC1 [LINOGLIRIDE]	> 20	> 20
CCCCC/C=C\C/C=C\CCCCCCCC(=O)O [LINOLEIC ACID]	> 20	> 20
O=C1N(c2ccccc2)c2ccccc2C1(Cc1ccncc1)Cc1ccncc1 [LINOPIRDINE]	> 20	> 20
[NH-]c1c[n+](N2CCOCC2)no1 [LINSIDOMINE]	> 20	> 20
C[C@]1(O)C[C@@H](c2nc(-c3ccc4ccc(-c5ccccc5)nc4c3)c3c(N)nccn32)C1 [LINSITINIB]	> 20	> 20
CCN1CCN=C1CNC(=O)c1cc(Cl)c(N)cc1OC [LINTOPRIDE]	> 20	> 20
O=C(O)CCCCC1CCSS1 (stereo not drawn) [LIPOIC ACID, ALPHA]	> 20	> 20
COc1cccc(N(C)C(=S)Oc2ccc3c(c2)CCCC3)n1 [LIRANAFTATE]	> 20	> 20
NCCCC[C@H](N[C@@H](CCc1ccccc1)C(=O)O)C(=O)N1CCC[C@H]1C(=O)O [LISINOPRIL ANHYDROUS]	> 20	> 20
C[C@@H](O)CCCCn1c(=O)c2c(ncn2C)n(C)c1=O [LISOFYLLINE]	> 20	> 20
c1ccc2cc(COC3CCNCC3)ccc2c1 [LITOXETINE]	> 20	> 20
CN1[C@@H](CC(=O)c2ccccc2)CCC[C@H]1C[C@H](O)c1ccccc1 [LOBELINE]	> 20	> 20
CCOC(=O)Nc1nc2ccccc2[nH]1 [LOBENDAZOLE]	> 20	> 20
N#Cc1cc(NC(=O)C(=O)O)c(Cl)c(NC(=O)C(=O)O)c1 [LODOXAMIDE]	> 20	> 20
CN(CCCN1c2ccccc2CCc2ccccc21)CC(=O)c1ccc(Cl)cc1 [LOFEPRAMINE]	> 20	> 20
CC(Oc1c(Cl)cccc1Cl)C1=NCCN1 (stereo not drawn) [LOFEXIDINE]	> 20	> 20
Fc1ccc(NC(=S)Nc2cc(Cl)cc(Cl)c2)cc1 [LOFLUCARBAN]	> 20	> 20
CCn1cc(C(=O)O)c(=O)c2cc(F)c(N3CCNC(C)C3)c(F)c21 (stereo not drawn) [LOMEFLOXACIN]	> 20	> 20
Nc1nc(OCc2cc(Br)cs2)c2[nH]cnc2n1 [LOMEGUATRIB]	> 20	> 20
COc1ccc(Cl)c2c1CCCC2N(C)C (stereo not drawn) [LOMETRALINE]	> 20	> 20
O=C(NC1CCN(CCCCC2(C(=O)NCC(F)(F)F)c3ccccc3-c3ccccc32)CC1)c1ccccc1-c1ccc(C(F)(F)F)cc1 [LOMITAPIDE]	> 20	> 20
O=NN(CCCl)C(=O)NC1CCCCC1 [LOMUSTINE]	> 20	> 20
NC(=O)N1CCC(CC(=O)N2CCC([C@H]3c4ncc(Br)cc4CCc4cc(Cl)cc(Br)c43)CC2)CC1 [LONAFARNIB]	> 20	> 20
COc1c(OC)c(OC(C)=O)c2cc(Cl)ccc2c1OC(C)=O [LONAPALENE]	> 20	> 20
O=C(O)Cc1cn(-c2ccccc2)nc1-c1ccc(Cl)cc1 [LONAZOLAC]	> 20	> 20

SMILES	IC50 [µM]	IC50 (read-out: pIC50 (converted)) [µM]
O=C(O)c1nn(Cc2ccc(Cl)cc2Cl)c2ccccc12 [LONIDAMINE]	> 20	> 20
CN1CCN(/C=C2\N=C3CN=C(c4ccccc4Cl)c4cc([N+](=O)[O-])ccc4N3C2=O)CC1 [LOPRAZOLAM]	> 20	> 20
N[C@@H](C(=O)N[C@@H]1C(=O)N2C(C(=O)O)=C(Cl)CC[C@H]12)c1ccccc1 [LORACARBEF ANHYDROUS]	> 20	> 20
CCOC(=O)N1CCC(=C2c3ccc(Cl)cc3CCc3cccnc32)CC1 [LORATADINE]	> 20	> 20
O=C1Nc2ccc(Cl)cc2C(c2ccccc2Cl)=NC1O (stereo not drawn) [LORAZEPAM]	> 20	> 20
Clc1ccc(N2CCN(C/C=C/c3ccccc3)CC2)nn1 [LORCINADOL]	> 20	> 20
Cl/C(=C\n1cncn1)c1ccc(Cl)cc1Cl [LORECLEZOLE]	> 20	> 20
CCCCCN(CCCCC)C(=O)C(CCC(=O)O)NC(=O)c1ccc(Cl)c(Cl)c1 (stereo not drawn) [LORGLUMIDE]	> 20	> 20
C[C@H]1Oc2cc(cnc2N)-c2c(nn(C)c2C#N)CN(C)C(=O)c2ccc(F)cc21 [LORLATINIB]	> 20	> 20
CN1C(=O)C(O)N=C(c2ccccc2Cl)c2cc(Cl)ccc21 (stereo not drawn) [LORMETAZEPAM]	> 20	> 20
CN(C(=O)CNC(=O)CN)c1ccc(Cl)cc1C(=O)c1ccccc1Cl [LORZAFONE ANHYDROUS]	> 20	> 20
CCCCc1nc(Cl)c(CO)n1Cc1ccc(-c2ccccc2-c2nnn[nH]2)cc1 [LOSARTAN]	> 20	> 20
Cc1c(F)cc(C(=O)NC2CC2)cc1-c1ccc(C(=O)NCC(C)(C)C)cn1 [LOSMAPIMOD]	> 20	> 20
O=C(c1ccc(Nc2ccnc3cc(C(F)(F)F)ccc23)cc1)N1CCN(S(=O)(=O)c2ccc(F)cc2)CC1 [LOSULAZINE]	> 20	> 20
CC[C@H](C)C(=O)O[C@H]1C[C@@H](C)C=C2C=C[C@H](C)[C@H](CC[C@@H]3C[C@@H](O)CC(=O)O3)[C@H]21 [LOVASTATIN]	> 20	> 20
CN1CCN(C2=Nc3ccccc3Oc3ccc(Cl)cc32)CC1 [LOXAPINE]	> 20	> 20
CCCCCN(CCCOC)C(=O)C(CCC(=O)O)NC(=O)c1ccc(Cl)c(Cl)c1 (stereo not drawn) [LOXIGLUMIDE]	> 20	> 20
CNC(=O)c1cccc2cc(Oc3ccnc4cc(OCC5(N)CC5)c(OC)cc34)ccc12 [LUCITANIB]	> 20	> 20
CC(C)C(=O)OC[C@@]1(CCl)O[C@@H](n2ccc(N)nc2=O)[C@H](F)[C@@H]1OC(=O)C(C)C [LUMICITABINE]	> 20	> 20
CCNC(=O)c1noc(-c2cc(C(C)C)c(O)cc2O)c1-c1ccc(CN2CCOCC2)cc1 [LUMINESPIB]	> 20	> 20
Cc1ccc(Nc2c(F)cccc2Cl)c(CC(=O)O)c1 [LUMIRACOXIB]	> 20	> 20
OC[C@@H]1CCCN2CCCC[C@H]12 [LUPININE]	> 20	> 20
Cc1nc2ccccn2c(=O)c1CCN1CCc2oc3ccccc3c2C1 [LUSAPERIDONE]	> 20	> 20
O=c1cc(-c2ccc(O)c(O)c2)oc2cc(O)cc(O)c12 [LUTEOLIN]	> 20	> 20
N[C@@]1(C(=O)O)CS(=O)(=O)[C@H]2[C@H](C(=O)O)[C@H]21 [LY404039]	> 20	> 20

SMILES	IC50 [µM]	IC50 (read-out: pIC50 (converted)) [µM]
Cc1nc(N2CCN(C)CC2)c2nc(-c3ccccc3Cl)n(C3CCOCC3)c2n1 [LY2828360]	> 20	> 20
O[C@H]1[C@H]2c3cc4c(cc3CN3CCC(=C[C@@H]1O)[C@H]23)OCO4 [LYCORINE]	> 20	> 20
NCc1ccc(S(N)(=O)=O)cc1 [MAFENIDE]	> 20	> 20
CCOC(=O)CC(SP(=S)(OC)OC)C(=O)OCC (stereo not drawn) [MALATHION]	> 20	> 20
O=C(O)/C=C\C(=O)O [MALEIC ACID]	> 20	> 20
O=C(O)CC(O)C(=O)O (stereo not drawn) [MALIC ACID]	> 20	> 20
O=C(O)CC(=O)O [MALONIC ACID]	> 20	> 20
Cc1occc(=O)c1O [MALTOL]	> 20	> 20
OC[C@H]1O[C@H](O[C@H]2[C@H](O)[C@@H](O)[C@H](O)O[C@@H]2CO)[C@H](O)[C@@H](O)[C@@H]1O [MALTOSE]	> 20	> 20
COC(=O)C(O)c1ccccc1 (stereo not drawn) [MANDELIC ACID, METHYL ESTER]	> 20	> 20
O=c1c2cc(O)c(O)cc2oc2cc(O)c([C@@H]3O[C@H](CO)[C@@H](O)[C@H](O)[C@H]3O)c(O)c12 [MANGIFERIN]	> 20	> 20
COC(=O)C1=C(C)NC(C)=C(C(=O)OCCN2CCN(C(c3ccccc3)c3ccccc3)CC2)C1c1cccc([N+](=O)[O-])c1 (stereo not drawn) [MANIDIPINE 6300]	> 20	> 20
Cc1nnc(C(C)C)n1[C@H]1C[C@H]2CC[C@@H](C1)N2CC[C@H](NC(=O)C1CCC(F)(F)CC1)c1ccccc1 [MARAVIROC]	> 20	> 20
CN1CCN(c2c(F)cc3c(=O)c(C(=O)O)cn4c3c2OCN4C)CC1 [MARBOFLOXACIN]	> 20	> 20
Cn1cc(-c2ccncc2)c(-c2ccc(OCc3ccc4ccccc4n3)cc2)n1 [MARDEPODECT]	> 20	> 20
CC(C)Nc1nc2cc(Cl)c(Cl)cc2n1[C@H]1O[C@@H](CO)[C@H](O)[C@@H]1O [MARIBAVIR]	> 50.1	> 50.1
C=CC(=O)N[C@@H]1CN(c2nc(Nc3cn(C)nc3OC)c3ncn(C)c3n2)C[C@H]1F [MAVELERTINIB]	> 20	> 20
CC(C)Oc1ccccc1N1CCN(Cc2cccc(C(=O)N3CCCCC3)c2)CC1 [MAZAPERTINE]	> 20	> 20
OC1(c2ccc(Cl)cc2)c2ccccc2C2=NCCN21 (stereo not drawn) [MAZINDOL]	> 20	> 20
CC(C)Cc1sc(N)nc1-c1ccc(P(=O)(O)O)o1 [MB-05032]	> 20	> 20
COC(=O)Nc1nc2cc(C(=O)c3ccccc3)ccc2[nH]1 [MEBENDAZOLE]	> 20	> 20
CCN(CCCCOC(=O)c1ccc(OC)c(OC)c1)C(C)Cc1ccc(OC)cc1 (stereo not drawn) [MEBEVERINE]	> 20	> 20
CN1CCc2c(c3ccccc3n2Cc2ccccc2)C1 [MEBHYDROLIN]	> 20	> 20
CN1C(=O)N(C)C2C1N(C)C(=O)N2C (stereo not drawn) [MEBICAR]	> 20	> 20
